Results reported in US20070254891A1, “Crystalline forms of 4-(2-fluorophenyl)-6-methyl-2-(piperazin-1-yl)thieno[2,3-d]pyrimidine” (Dynogen Pharmaceuticals, Inc., priority 2006, published 2007).
Where two headings read alike, the source gives them in different places.

Key:
Assay type in all cases: physicochemical
[1] = pKa determination (Sirius GlpKa, potentiometric and UV)
Method: pKa was measured on a Sirius GlpKa instrument equipped with a D-PAS attachment. A UV measurement was taken when the sample was in an aqueous solution and a potentiometric was taken when the sample was in a MeOH:H2O mixture. Measurements were taken at 25° C. The titration media was ionic strength adjusted with 0.15M KCl. Values determined from potentiometric measurements in the MeOH:H2O mixtures were corrected to 0% co-solvent via a Yasuda-Shedlovsky extrapolation. The data was refined using Refinement Pro software version 1.0. Prediction of pKa values was made using ACD pKa prediction software Ver 8.

[2] = LogP / LogPion / LogD by potentiometric titration (octanol:ISA water)
Method: LogP was determined using a potentiometric titration on a Sirius GlpKa instrument using three ratios of Octanol:ISA water to generate Log P, Log Pion, and Log D values. The data was refined using Refinement Pro software version 1.0. Predictions of LogP were made using ACD Ver 8 and Syracuse KOWWIN Ver 1.67 software.

[3] = Aqueous solubility with pH measurement; settings: water; for solubility at 24 h: 25 °C, thermodynamic from solid
Method: Each sample was suspended in 0.25 ml of solvent (water) in an amount effective to produce a maximum final concentration of greater than or equal to about 10 mg/ml of the parent free form of the compound (i.e., adding excess sample to account for the weight of the salt). […] The filtrate was then diluted down 101 times.

[4] = Gravimetric vapor sorption (GVS)
Method: GVS was used to determine the amount of water adsorbed by a sample. Briefly, samples were run on a Hiden IGASorp moisture sorption analyzer running CFRSorp software. Sample sizes were typically 10 mg. A moisture adsorption desorption isotherm was performed as outlined below in Table 3 (2 scans giving 1 complete cycle). Samples were loaded/unloaded at typical room humidity and temperature (40% RH, 25° C.). Samples were then analyzed by XRPD after GVS analysis, e.g., to determine whether any structural changes took place after adsorption of water. The standard isotherm was performed at 25° C. at 10% RH intervals over a 0-90% RH range.

[5] = Storage at 40° C./75% RH under ambient light (XRPD, HPLC purity, colour)
Method: (§1) Purity analysis was performed on an Agilent HP1100 system equipped with a diode array detector and using Chemstation V9 software. Gradient, Reverse Phase methods (duration approximately 40 minutes) were used in a HPLC1 system. A Thermo-Electron Corporation HyPurity C18 5 um 150×4.6 mm column was used at 25° C. Test samples were made-up of 0.2 mg/ml of the compound in acetonitrile:water (1:1 v/v). 10 μl of sample was injected into the column. The flow rate through the column was 1 ml/min and the detection wavelength, bandwidth was 254,8 nm. Phase A was 0.1% phosphoric acid in water and Phase B was 0.1% phosphoric acid in acetonitrile. The mobile phase timetable is shown below in Table 2.
Form I was characterized by pKa, LogP, LogPion and LogD determination and prediction, XRPD before and after storage at 40° C./75% RH for 4 weeks, PLM, DSC and TGA, ^1HNMR, solubility in water with pH measurement, HPLC purity before and after storage at 40° C./75% RH for 4 weeks, water content, GVS with XRPD and purity analysis after measurement, and VT-XRPD.
Form II has been characterized using XRPD before and after storage at 40° C./75% RH for 3 weeks, PLM, DSC and TGA, Solubility in water with pH measurement, HPLC purity, Water content, GVS with XRPD analysis after measurement, and VT-XRPD.

[6] = Accelerated light stability study (Atlas Suntest CPS+ light box)
Method: as §1
Accelerated Light stability experiments were conducted using an Atlas Suntest CPS+light box. The light exposure was set to 550 W/m^2 and the run time was set to 168 hours (1 week). The chamber temperature and black standard temperature (which indicates how hot the test samples will become) were set to 25° C. The actual temperature in the sample chamber was 40° C.
Form I and II were assessed using an Atlas Suntest CPS+ light box to determine the effect of their exposure to light over a period of 168 hours (1 week). The light exposure was set to 550 W/M^2. Samples were weighed into either open weighing boats covered by pyrex glass beakers, glass vials with open tops (no lid), or glass vials covered in Aluminum foil. In all instances, the material was spread out into an even, thin layer.

[7] = 10 week stability study at 40° C./75% RH and 60° C./75% RH, light and dark
Method: as §1
Samples of Form I and II were tested at 40° C./75% RH and 60° C./75% RH in both light and dark conditions for up to 10 weeks. As the samples were located in temperature/humidity control chambers, the exposure to light was limited to normal laboratory light conditions with artificial light and some winter daylight through the windows.
Approximately 100 mg of each sample was weighed into plastic weighing boats and spread out to form an even thin layer for each of the temperature/humidity/light conditions, as shown in Table 6. The dark samples were protected from exposure to light by wrapping them in aluminum foil. The foil was pierced to allow exposure to humidity.
Time points chosen for HPLC analysis during the stability study were T=0, 1, 2, 5 and 10 weeks. At 10 weeks, the samples were analyzed using XRPD, DSC and polarized light microscopy.

[8] = Variable temperature XRPD (VT-XRPD); settings: heating; irreversible; hydrochloride
Method: Samples run under ambient conditions were prepared as flat plate specimens using powder without grinding unless otherwise stated. Approximately 1-2 mg of the sample was lightly pressed on a glass slide to obtain a flat surface. Samples run under non-ambient conditions (VT-XRPD) were mounted on a silicon wafer with heat conducting compound. The sample was then heated to the appropriate temperature at about 20° C./minute and subsequently held isothermally for about 1 minute before data collection was initiated.
Three samples were studied using variable temperature XRPD (VT-XRPD): Form I as received, substantially pure Form I as prepared in Example 3, and substantially pure Form II as prepared in Example 3. VT-XRPD studies were initially carried out on substantially pure Form I as prepared in Example 3 with measurements at 25° C., 50° C., 80° C., 150° C., 220° C., 225° C., 250° C. and cooling to 29° C. Prior to measurement of the last XRPD pattern, the material was crushed due to the growth of large crystals. An overlay of the XRPD patterns can be found in FIG. 4A.
An experiment was also carried out on Form I as received, with measurements at 26° C., 50° C., 150° C., 200° C., 210° C., 220° C., 230° C. and cooling to 27° C. An overlay of the XRPD patterns can be found in FIG. 4B. […] (see peak at ˜14.7 2θ). […]

[9] = 4 weeks at 40° C./75% RH, ambient light

Compound `Cc1cc2c(-c3ccccc3F)nc(N3CCNCC3)nc2s1.Cl` [Form I, 4-(2-fluorophenyl)-6-methyl-2-(piperazin-1-yl)thieno[2,3-d]pyrimidine hydrochloride] has a pKa ([1]; MeOH:H2O mixtures, extrapolated to 0% co-solvent, potentiometric determination in MeOH/water, Yasuda-Shedlovsky extrapolation, read-out: pKa (basic)) of 8.64, a pKa ([1]; aqueous solution, UV spectroscopy (D-PAS attachment), read-out: pKa of second basic centre) of 0.81 and a LogPion ([2]; 0.15M KCl(Aq) / 1-octanol) of 1.41. The logP ([2]; 1-octanol / 0.15M KCl (aq), 0.15M KCl(Aq) / 1-octanol) was 3.96, the logD ([2]; octanol/ISA water, pH 7.4) was 2.72 and the “pH of the solubility sample” value ([3]; 25° C., 24 hours, hydrochloride) was 6.33. For the same compound, the solubility at 24 h ([3]; read-out: Aqueous solubility (as the hydrochloride)) was 2100 µg/mL, the solubility at 24 h ([3]; read-out: Aqueous solubility (free base equivalent)) was 1700 µg/mL and the “XRPD reanalysis after GVS” value ([4]; after one adsorption/desorption cycle) was “did not show any change”. The “GVS total weight increase” value ([4]; between 0 and 90% RH, single cycle, 25° C., hydrochloride) was 5.0%, the GVS weight increase ([4]; between 20% and 30% RH) was “about 4.8%” and the “GVS weight increase, equivalent water” value ([4]; between 20% and 30% RH) was 1.0 moles of water. The “Colour of material surface after storage” value [5, 9] was “gone yellow”, the “HPLC purity after storage” value [5, 9] was 99.0% and the “XRPD pattern after storage” value ([5]; 40° C./75% RH for four weeks) was “unchanged”. For the same compound, the “Purity after 1 week light exposure” value ([6]; 20 ml glass vial covered in Al foil with loose lid (control)) was 99.9, the “Purity after 1 week light exposure” value ([6]; 20 ml glass vial, 550 W/m^2, 168 hours, hydrochloride) was 77.8 and the “HPLC purity after accelerated light study” value ([6]; one week, FIGS. 6A/6B (open weighing boats), hydrochloride) was 79.4%. For the same compound, the “Purity after 1 week light exposure” value ([6]; open weighing boat, 550 W/m^2, 168 hours, hydrochloride) was 79.4, the Purity % ([7]; 40° C./75% RH, Dark, 1 week) was 99.9% and the Purity % ([7]; 40° C./75% RH, Dark, 2 weeks) was 100%. The Purity % ([7]; 40° C./75% RH, Dark, 5 weeks) was 100%, the Purity % ([7]; 40° C./75% RH, Dark, 10 weeks, hydrochloride) was 99.9% and the Purity % ([7]; 40° C./75% RH, Light, 1 week) was 99.9%. The Purity % ([7]; 40° C./75% RH, Light, 2 weeks) was 100%, the Purity % ([7]; 40° C./75% RH, Light, 5 weeks, hydrochloride) was 99.8% and the Purity % ([7]; 40° C./75% RH, Light, 10 weeks, hydrochloride) was 99.4%. For the same compound, the Purity % ([7]; 60° C./75% RH, Dark, 1 week) was 99.9%, the Purity % ([7]; 60° C./75% RH, Dark, 2 weeks, hydrochloride) was 99.9% and the Purity % ([7]; 60° C./75% RH, Dark, 5 weeks) was 100%. For the same compound, the Purity % ([7]; 60° C./75% RH, Dark, 10 weeks, hydrochloride) was 100%, the Purity % ([7]; 60° C./75% RH, Light, 1 week) was 99.8% and the Purity % ([7]; 60° C./75% RH, Light, 2 weeks, hydrochloride) was 99.8%. For the same compound, the Purity % ([7]; 60° C./75% RH, Light, 5 weeks, hydrochloride) was 99.5%, the Purity % ([7]; 60° C./75% RH, Light, 10 weeks, hydrochloride) was 99.4% and the “Yellow coloration of the surface (visual inspection)” value ([7]; after 10 weeks, both storage conditions) was “greatest”. The Purity % ([7]; time point 0 weeks, hydrochloride) was 100% and the “Stability as indicated by the HPLC data” value ([7]; up to 10 weeks, 40° C./75% RH and 60° C./75% RH) was “stable to ambient light levels as well as elevated temperature and humidity”.

In the case of `Cc1cc2c(-c3ccccc3F)nc(N3CCNCC3)nc2s1.Cl` [Form III, 4-(2-fluorophenyl)-6-methyl-2-(piperazin-1-yl)thieno[2,3-d]pyrimidine hydrochloride], the “Temperature of conversion into Form II” value [8] is reported as 200-220 °C.
